Reference: US12685312B2, “Sulfonamide apyrase inhibitors” (Texas Crop Science, Inc., priority 2022, dated 2026)

Test system: apyrase
Assay: Screen for apyrase inhibitors (Method 1, in vitro phosphate-release absorbance assay)
Type: biochemical
Settings: inhibitor conc at 1 mM stock, 1 hr room temperature, absorbance 630 nm; rounded average of two assay results
Method in brief: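 Phosphate-release colorimetric assay (Windsor method) in 60 mM Hepes, 3 mM MgCl2, 3 mM CaCl2, 3 mM ATP, pH 6.5, with compound or DMSO control added. Released phosphate developed with ammonium molybdate and ascorbic acid/TCA, then stopped with citrate/acetic acid.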

% Inhibition of Apyrase [%] | SMILES
71 | O=C(Nc1ccc(S(=O)(=O)N2CCCC2)cc1)c1ccccc1NS(=O)(=O)c1cccc(C(F)(F)F)c1 [I-373, N-(4-(pyrrolidin-1-ylsulfonyl)phenyl)-2-((3-(trifluoromethyl)phenyl)sulfonamido) benzamide]
15 | COc1ccccc1NS(=O)(=O)c1ccc(C(=O)Nc2ccc(F)c([N+](=O)[O-])c2)cc1 [I-414, N-(4-fluoro-3-nitrophenyl)-4-(N-(2-methoxyphenyl)sulfamoyl)benzamide]
33 | CN(c1ccccc1)S(=O)(=O)c1cccc(NC(=O)c2ccc(=O)[nH]n2)c1 [I-755, N-(3-(N-methyl-N-phenylsulfamoyl)phenyl)-6-oxo-1,6-dihydropyridazine-3-carboxamide]
52 | NC(=O)OCCNC(=O)c1cccc(S(=O)(=O)Nc2ccc(Br)cc2)c1 [I-17, 2-(3-(N-(4-bromophenyl)sulfamoyl)benzamido)ethyl carbamate]
69 | CC1Cc2ccccc2N1S(=O)(=O)c1cccc(C(=O)Nc2ccc(F)c([N+](=O)[O-])c2)c1 (stereo not shown) [I-242, N-(4-fluoro-3-nitrophenyl)-3-((2-methylindolin-1-yl)sulfonyl)benzamide]
42 | COc1ccc(NC(=O)c2cccc(NS(=O)(=O)c3cc(Cl)ccc3Cl)c2)cn1 [I-654, 3-((2,5-dichlorophenyl)sulfonamido)-N-(6-methoxypyridin-3-yl)benzamide]
23 | COc1cc(C)c(NC(=O)c2cccc(S(=O)(=O)N3CCc4ccccc43)c2)cc1OC [I-605, N-(4,5-dimethoxy-2-methylphenyl)-3-(indolin-1-ylsulfonyl)benzamide]
14 | NS(=O)(=O)c1ccc(NC(=O)c2ccc(NS(=O)(=O)c3ccc(F)c(Cl)c3)cc2)cc1 [I-961, 4-((3-chloro-4-fluorophenyl)sulfonamido)-N-(4-sulfamoylphenyl)benzamide]
10 | O=C(Nc1cccc([N+](=O)[O-])c1)c1cccc(S(=O)(=O)NCc2ccccc2)c1 [I-50, 3-(N-benzylsulfamoyl)-N-(3-nitrophenyl)benzamide]
42 | COc1ccc(NS(=O)(=O)c2cccc(C(=O)Nc3ccc(C#N)cc3)c2)cc1 [I-1006, N-(4-cyanophenyl)-3-(N-(4-methoxyphenyl)sulfamoyl)benzamide]
11 | CCCNC(=O)CN(CCC)C(=O)c1cccc(S(=O)(=O)Nc2ccc(Br)cc2)c1 [I-287, 3-(N-(4-bromophenyl)sulfamoyl)-N-(2-oxo-2-(propylamino)ethyl)-N-propylbenzamide]
3 | COc1ccc(NS(=O)(=O)c2ccc(NC(=O)c3ccc(F)cc3)cc2)cc1 [I-1002, 4-fluoro-N-(4-(N-(4-methoxyphenyl)sulfamoyl)phenyl)benzamide]
21 | O=C(Nc1cccnc1)c1cccc(S(=O)(=O)Nc2cccc(C(F)(F)F)c2)c1 [I-30, N-(pyridin-3-yl)-3-(N-(3-(trifluoromethyl)phenyl)sulfamoyl)benzamide]
60 | COc1ccc(NC(=O)c2cccc(S(=O)(=O)N3CCc4ccccc43)c2)cc1 [I-454, 3-(indolin-1-ylsulfonyl)-N-(4-methoxyphenyl)benzamide]
23 | Cc1ccc(F)c(NC(=O)c2ccc(NS(=O)(=O)c3ccccc3)cc2)c1 [I-955, N-(2-fluoro-5-methylphenyl)-4-(phenylsulfonamido)benzamide]
44 | Cn1nc2c(c1NC(=O)c1cccc(NS(=O)(=O)c3ccc(Br)cc3)c1)CCC2 [I-653, 3-((4-bromophenyl)sulfonamido)-N-(2-methyl-2,4,5,6-tetrahydrocyclopenta[c]pyrazol-3-yl)benzamide]
43 | COc1ccc(NC(=O)c2ccc(Cl)c(S(=O)(=O)N3CCc4ccccc43)c2)cc1OC [I-588, 4-chloro-N-(3,4-dimethoxyphenyl)-3-(indolin-1-ylsulfonyl)benzamide]
40 | C[S+]([O-])c1ccc(C(=O)Nc2cccc(S(=O)(=O)Nc3ccc(Br)cc3)c2)cc1 (stereo not shown) [I-334, N-(3-(N-(4-bromophenyl)sulfamoyl)phenyl)-4-(methylsulfinyl)benzamide]
33 | O=C(Nc1cccc(OC(F)F)c1)c1cccc(S(=O)(=O)Nc2cccc(C(F)(F)F)c2)c1 [I-1007, N-(3-(difluoromethoxy)phenyl)-3-(N-(3-(trifluoromethyl)phenyl)sulfamoyl)benzamide]
13 | COc1ccc(NS(=O)(=O)c2ccc(C(=O)Nc3ccc(F)cc3C)cc2)cc1 [I-416, N-(4-fluoro-2-methylphenyl)-4-(N-(4-methoxyphenyl)sulfamoyl)benzamide]
55 | COc1ccc(C(=O)Nc2cccc(Cl)c2)cc1S(=O)(=O)Nc1ccc(Br)cc1 [I-15, 3-(N-(4-bromophenyl)sulfamoyl)-N-(3-chlorophenyl)-4-methoxybenzamide]
22 | COc1ccc(NC(=O)c2ccc(NS(=O)(=O)c3ccc(Cl)cc3F)cc2)cc1 [I-956, 4-((4-chloro-2-fluorophenyl)sulfonamido)-N-(4-methoxyphenyl)benzamide]

% Inhibition of Apyrase [%] | SMILES
49 | Cc1cnc(C(=O)Nc2cccc(S(=O)(=O)Nc3cccc(Cl)c3)c2)cn1 [I-744, N-(3-(N-(3-chlorophenyl)sulfamoyl)phenyl)-5-methylpyrazine-2-carboxamide]
51 | COc1ccc(N(C)S(=O)(=O)c2cccc(C(=O)Nc3ccc4c(c3)OCCO4)c2)cc1 [I-563, N-(2,3-dihydrobenzo[b][1,4]dioxin-6-yl)-3-(N-(4-methoxyphenyl)-N-methylsulfamoyl)benzamide]
47 | Cc1nc2cc(NC(=O)c3cccc(S(=O)(=O)N4c5ccccc5CC4C)c3)ccc2o1 (stereo not shown) [I-583, N-(2-methylbenzo[d]oxazol-5-yl)-3-((2-methylindolin-1-yl)sulfonyl)benzamide]
64 | CC1CCc2c(sc(NC(=O)c3cccc(S(=O)(=O)Nc4ccccc4Cl)c3)c2C#N)C1 (stereo not shown) [I-437, 3-(N-(2-chlorophenyl)sulfamoyl)-N-(3-cyano-6-methyl-4,5,6,7-tetrahydrobenzo[b]thiophen-2-yl)benzamide]
57 | O=C(c1cccc(S(=O)(=O)N2CCc3ccccc32)c1)N1CCCc2ccccc21 [I-498, (3,4-dihydroquinolin-1(2H)-yl)(3-(indolin-1-ylsulfonyl)phenyl)methanone]
7 | Cc1cnc(C(=O)Nc2cccc(S(=O)(=O)Nc3cccc(C(F)(F)F)c3)c2)cn1 [I-769, 5-methyl-N-(3-(N-(3-(trifluoromethyl)phenyl)sulfamoyl)phenyl) pyrazine-2-carboxamide]
51 | Cc1ccc(C(=O)N2CCc3ccccc32)cc1S(=O)(=O)Nc1ccc(F)cc1 [I-569, N-(4-fluorophenyl)-5-(indoline-1-carbonyl)-2-methylbenzenesulfonamide]
74 | Cc1ccc(C(=O)Nc2cccc(S(=O)(=O)Nc3ccc(Br)cc3)c2)cc1 [I-194, N-(3-(N-(4-bromophenyl)sulfamoyl)phenyl)-4-methylbenzamide]
46 | COc1ccc(NS(=O)(=O)c2ccc(NC(=O)c3ccccc3OC(F)F)cc2)cc1OC [I-996, 2-(difluoromethoxy)-N-(4-(N-(3,4-dimethoxyphenyl)sulfamoyl)phenyl)benzamide]
63 | Cc1ccc(C(=O)Nc2ccc(S(=O)(=O)Nc3ccc(F)cc3)cc2)cc1Br [I-974, 3-bromo-N-(4-(N-(4-fluorophenyl)sulfamoyl)phenyl)-4-methylbenzamide]
57 | CN(c1ccccc1)S(=O)(=O)c1cccc(NC(=O)c2ccc(Br)o2)c1 [I-722, 5-bromo-N-(3-(N-methyl-N-phenylsulfamoyl)phenyl)furan-2-carboxamide]
16 | COc1ccc(NS(=O)(=O)c2ccc(NC(=O)c3ccc(Cl)cc3)cc2)cc1 [I-1001, 4-chloro-N-(4-(N-(4-methoxyphenyl)sulfamoyl)phenyl)benzamide]
49 | COc1ccc(NC(=O)c2cccc(S(=O)(=O)N3CCc4ccccc43)c2)c(OC)c1 [I-575, N-(2,4-dimethoxyphenyl)-3-(indolin-1-ylsulfonyl)benzamide]
29 | CCOc1ncccc1C(=O)Nc1cccc(S(=O)(=O)Nc2ccccc2OC)c1 [I-757, 2-ethoxy-N-(3-(N-(2-methoxyphenyl)sulfamoyl)phenyl) nicotinamide]
46 | CCOc1ccc(Br)cc1S(=O)(=O)Nc1ccc(NC(=O)c2ccccc2F)cc1 [I-1004, N-(4-((5-bromo-2-ethoxyphenyl)sulfonamido)phenyl)-2-fluorobenzamide]
70 | O=C(Nc1cccc(Cl)c1)c1cccc(S(=O)(=O)Nc2ccc3c(c2)OCO3)c1 [I-197, 3-(N-(benzo[d][1,3]dioxol-5-yl)sulfamoyl)-N-(3-chlorophenyl)benzamide]
82 | Cc1cccc(NS(=O)(=O)c2ccc(C(=O)Nc3cccc(C#N)c3)cc2)c1C [I-855, N-(3-cyanophenyl)-4-(N-(2,3-dimethylphenyl)sulfamoyl)benzamide]
52 | Cc1cccc(NC(=O)c2ccc(NS(=O)(=O)c3ccc(F)cc3)cc2)c1C [I-937, N-(2,3-dimethylphenyl)-4-((4-fluorophenyl)sulfonamido)benzamide]
21 | O=C(Nc1ccc(Br)cn1)c1cccc(NS(=O)(=O)c2ccc(F)c(Cl)c2)c1 [I-666, N-(5-bromopyridin-2-yl)-3-((3-chloro-4-fluorophenyl)sulfonamido)benzamide]
59 | Cc1ccc(S(=O)(=O)Nc2cccc(C(=O)Nc3cccc(C)c3)c2)cc1 [I-14, 3-((4-methylphenyl)sulfonamido)-N-(m-tolyl)benzamide]
48 | Cc1ccc(NS(=O)(=O)c2ccc(C(=O)N3CCc4cc(S(N)(=O)=O)ccc43)cc2)cc1 [I-884, 1-(4-(N-(p-tolyl)sulfamoyl)benzoyl)indoline-5-sulfonamide]
